From patent US12291519B2, “2-hydroxycycloalkane-1-carbamoyl” (Idorsia Pharmaceuticals Ltd, priority 2019, dated 2025)

Columns and labels:
[1] = target: human Gal-3 (hGal-3) (Homo sapiens (Human), UniProt P17931); assay: Competitive binding assay: biotinylated hGal-3 binding to microplate-adsorbed asialofetuin (ASF); details: Activity on hGal-3; binding of biotinylated hGal-3 to ASF-coated plates; mean values
Procedure: (§1) Evaluation of Compound Inhibitory Activity (IC50)
The inhibitory activity of compounds is determined in competitive binding assays. […] Alternatively, and preferably, a human Gal-1 version in which all six cysteines are substituted by serines may be used.
Briefly, compounds are serially diluted in DMSO (working dilutions).
(§2) Plates are incubated for 3 hours at 4° C. then washed with cold assay buffer (3×50 uL), incubated for 1 hour with 25 μL/well of a streptavidin-peroxidases solution (diluted in assay buffer to 80 ng/mL) at 4° C., followed by further washing steps with assay buffer (3×50 uL). Finally, 25 μL/well of ABTS substrate is added.
(§3) The calculated IC50 values may fluctuate depending on the daily assay performance. Fluctuations of this kind are known to those skilled in the art. IC50 values from several measurements are given as mean values.

[2] = target: human Gal-1 (hGal-1); assay: Competitive binding assay: biotinylated hGal-1 binding to microplate-adsorbed asialofetuin (ASF); details: Activity on hGal-1; binding of biotinylated hGal-1 to ASF-coated plates; mean values
Sequence of human Gal-1 (hGal-1) (P09382 2-135 limits assumed): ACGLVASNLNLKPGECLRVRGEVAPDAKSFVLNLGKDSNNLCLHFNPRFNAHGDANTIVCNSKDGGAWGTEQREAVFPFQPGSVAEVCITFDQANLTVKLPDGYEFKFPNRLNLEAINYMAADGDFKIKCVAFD
Procedure: as §1
The inhibitory activity of compounds is determined in competitive binding assays. This spectrophotometric assay measures the binding of biotinylated human Gal-3 (hGal-3) or human Gal-1 (hGAl-1), respectively, to a microplate-adsorbed glycoprotein, asialofetuin (ASF) (Proc Natl Acad Sci USA. 2013 Mar. 26; 110(13):5052-7.). Alternatively, and preferably, a human Gal-1 version in which all six cysteines are substituted by serines may be used.
Briefly, compounds are serially diluted in DMSO (working dilutions). ASF-coated 384 well pates are supplemented with 22.8 μL/well of biotinylated hGal-3 or hGal-1 in assay buffer (i.e. 300-1000 ng/mL biotinylated hGal-3 or hGal-1) to which 1.2 μL of compound working dilutions are added and mixed.
as §2, with “added. OD (410 nm) is recorded after 30 to 45 min and IC50 values are calculated.” for “added.”
as §3

Sequence of human Gal-3 (hGal-3) (P17931 whole entry): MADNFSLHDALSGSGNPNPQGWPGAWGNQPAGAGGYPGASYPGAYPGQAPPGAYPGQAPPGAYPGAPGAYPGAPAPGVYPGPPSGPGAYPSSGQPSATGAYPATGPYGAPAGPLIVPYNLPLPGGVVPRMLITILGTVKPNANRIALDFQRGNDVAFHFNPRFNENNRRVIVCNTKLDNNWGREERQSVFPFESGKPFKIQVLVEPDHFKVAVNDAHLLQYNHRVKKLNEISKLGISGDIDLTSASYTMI

Structure (SMILES) | IC50 [1] | IC50 [2]
O=C([C@@H]1O[C@H](CO)[C@H](O)[C@H](n2cc(-c3cc(F)c(F)c(F)c3)nn2)[C@H]1O)N(Cc1cnsc1)[C@H]1CCCC[C@@H]1O [Example 18, (2R,3R,4S,5R,6R)-3,5-dihydroxy-N-((1S,2S)-2-hydroxycyclohexyl)-6-(hydroxymethyl)-N-(isothiazol-4-ylmethyl)-4-(4-(3,4,5-trifluorophenyl)-1H-1,2,3-triazol-1-yl)tetrahydro-2H-pyran-2-carboxamide] | 179 nM | 11600 nM
O=C([C@@H]1O[C@H](CO)[C@H](O)[C@H](n2cc(-c3cc(F)c(F)c(F)c3)nn2)[C@H]1O)N(Cc1csc(Br)n1)[C@H]1CCCC[C@@H]1O [Example 20, (2R,3R,4S,5R,6R)-N-((2-bromothiazol-4-yl)methyl)-3,5-dihydroxy-N-((1S,2S)-2-hydroxycyclohexyl)-6-(hydroxymethyl)-4-(4-(3,4,5-trifluorophenyl)-1H-1,2,3-triazol-1-yl)tetrahydro-2H-pyran-2-carboxamide] | 352 nM | 11700 nM
O=C([C@@H]1O[C@H](CO)[C@H](O)[C@H](n2cc(-c3cc(F)c(F)c(F)c3)nn2)[C@H]1O)N(Cc1cnc(N2CCOCC2)s1)[C@H]1CCCC[C@@H]1O [Example 21] | 112 nM | 10700 nM
O=C([C@@H]1O[C@H](CO)[C@H](O)[C@H](n2cc(-c3cc(F)c(F)c(F)c3)nn2)[C@H]1O)N(Cc1ccc(Cl)s1)[C@H]1CCCC[C@@H]1O [Example 22, (2R,3R,4S,5R,6R)-N-((5-chlorothiophen-2-yl)methyl)-3,5-dihydroxy-N-((1S,2S)-2-hydroxycyclohexyl)-6-(hydroxymethyl)-4-(4-(3,4,5-trifluorophenyl)-1H-1,2,3-triazol-1-yl)tetrahydro-2H-pyran-2-carboxamide] | 167 nM | 86600 nM
O=C([C@@H]1O[C@H](CO)[C@H](O)[C@H](n2cc(-c3cc(F)c(F)c(F)c3)nn2)[C@H]1O)N(Cc1ncc(Cl)s1)[C@H]1CCCC[C@@H]1O [Example 23, (2R,3R,4S,5R,6R)-N-((5-chlorothiazol-2-yl)methyl)-3,5-dihydroxy-N-((1S,2S)-2-hydroxycyclohexyl)-6-(hydroxymethyl)-4-(4-(3,4,5-trifluorophenyl)-1H-1,2,3-triazol-1-yl)tetrahydro-2H-pyran-2-carboxamide] | 403 nM | 22700 nM
CO[C@@H]1[C@@H](n2cc(-c3cc(F)c(F)c(F)c3)nn2)[C@@H](O)[C@@H](CO)O[C@H]1C(=O)N(Cc1ncccc1C(F)(F)F)[C@H]1CCCC[C@@H]1O [Example 25, (2R,3R,4S,5R,6R)-5-hydroxy-N-((1S,2S)-2-hydroxycyclohexyl)-6-(hydroxymethyl)-3-methoxy-N-((3-(trifluoromethyl)pyridin-2-yl)methyl)-4-(4-(3,4,5-trifluorophenyl)-1H-1,2,3-triazol-1-yl)tetrahydro-2H-pyran-2-carboxamide] | 280 nM | 4920 nM
CO[C@@H]1[C@@H](n2cc(-c3cc(F)c(F)c(F)c3)nn2)[C@@H](O)[C@@H](CO)O[C@H]1C(=O)N(Cc1cccnc1C(F)(F)F)[C@H]1CCCC[C@@H]1O [Example 26, (2R,3R,4S,5R,6R)-5-hydroxy-N-((1S,2S)-2-hydroxycyclohexyl)-6-(hydroxymethyl)-3-methoxy-N-((2-(trifluoromethyl)pyridin-3-yl)methyl)-4-(4-(3,4,5-trifluorophenyl)-1H-1,2,3-triazol-1-yl)tetrahydro-2H-pyran-2-carboxamide] | 159 nM | 338 nM
O=C([C@@H]1O[C@H](CO)[C@H](O)[C@H](n2cc(-c3cc(F)c(F)c(F)c3)nn2)[C@H]1O)N(Cc1cncnc1C(F)(F)F)[C@H]1CCCC[C@@H]1O [Example 27, (2R,3R,4S,5R,6R)-3,5-dihydroxy-N-((1S,2S)-2-hydroxycyclohexyl)-6-(hydroxymethyl)-N-((4-(trifluoromethyl)pyrimidin-5-yl)methyl)-4-(4-(3,4,5-trifluorophenyl)-1H-1,2,3-triazol-1-yl)tetrahydro-2H-pyran-2-carboxamide] | 264 nM | 3200 nM
COc1ncnc(OC)c1CN(C(=O)[C@@H]1O[C@H](CO)[C@H](O)[C@H](n2cc(-c3cc(F)c(F)c(F)c3)nn2)[C@H]1O)[C@H]1CCCC[C@@H]1O [Example 28, (2R,3R,4S,5R,6R)-N-((4,6-dimethoxypyrimidin-5-yl)methyl)-3,5-dihydroxy-N-((1S,2S)-2-hydroxycyclohexyl)-6-(hydroxymethyl)-4-(4-(3,4,5-trifluorophenyl)-1H-1,2,3-triazol-1-yl)tetrahydro-2H-pyran-2-carboxamide] | 165 nM | 3970 nM
Cc1ncncc1CN(C(=O)[C@@H]1O[C@H](CO)[C@H](O)[C@H](n2cc(-c3cc(F)c(F)c(F)c3)nn2)[C@H]1O)[C@H]1CCCC[C@@H]1O [Example 29, (2R,3R,4S,5R,6R)-3,5-dihydroxy-N-((1S,2S)-2-hydroxycyclohexyl)-6-(hydroxymethyl)-N-((4-methylpyrimidin-5-yl)methyl)-4-(4-(3,4,5-trifluorophenyl)-1H-1,2,3-triazol-1-yl)tetrahydro-2H-pyran-2-carboxamide] | 232 nM | 4410 nM
CO[C@@H]1[C@@H](n2cc(-c3cc(F)c(F)c(F)c3)nn2)[C@@H](O)[C@@H](CO)O[C@H]1C(=O)N(Cc1nc[nH]c1C)[C@H]1CCCC[C@@H]1O [Example 30, (2R,3R,4S,5R,6R)-5-hydroxy-N-((1S,2S)-2-hydroxycyclohexyl)-6-(hydroxymethyl)-3-methoxy-N-((5-methyl-1H-imidazol-4-yl)methyl)-4-(4-(3,4,5-trifluorophenyl)-1H-1,2,3-triazol-1-yl)tetrahydro-2H-pyran-2-carboxamide] | 575 nM | 10400 nM
CO[C@@H]1[C@@H](n2cc(-c3cc(F)c(F)c(F)c3)nn2)[C@@H](O)[C@@H](CO)O[C@H]1C(=O)N(Cc1sncc1Cl)[C@H]1CCCC[C@@H]1O [Example 31, (2R,3R,4S,5R,6R)-N-((4-chloroisothiazol-5-yl)methyl)-5-hydroxy-N-((1S,2S)-2-hydroxycyclohexyl)-6-(hydroxymethyl)-3-methoxy-4-(4-(3,4,5-trifluorophenyl)-1H-1,2,3-triazol-1-yl)tetrahydro-2H-pyran-2-carboxamide] | 311 nM | 1480 nM
CO[C@@H]1[C@@H](n2cc(-c3cc(F)c(F)c(F)c3)nn2)[C@@H](O)[C@@H](CO)O[C@H]1C(=O)N(Cc1ccnn1C)[C@H]1CCCC[C@@H]1O [Example 32] | 122 nM | 905 nM
CO[C@@H]1[C@@H](n2cc(-c3cc(F)c(F)c(F)c3)nn2)[C@@H](O)[C@@H](CO)O[C@H]1C(=O)N(Cc1sccc1C)[C@H]1CCCC[C@@H]1O [Example 33, (2R,3R,4S,5R,6R)-5-hydroxy-N-((1S,2S)-2-hydroxycyclohexyl)-6-(hydroxymethyl)-3-methoxy-N-((3-methylthiophen-2-yl)methyl)-4-(4-(3,4,5-trifluorophenyl)-1H-1,2,3-triazol-1-yl)tetrahydro-2H-pyran-2-carboxamide] | 127 nM | 962 nM
CO[C@@H]1[C@@H](n2cc(-c3cc(F)c(F)c(F)c3)nn2)[C@@H](O)[C@@H](CO)O[C@H]1C(=O)N(Cc1sccc1C)[C@H]1CCCC[C@@H]1O [Example 34] | 69 nM | 863 nM
CO[C@@H]1[C@@H](n2cc(-c3cc(F)c(F)c(F)c3)nn2)[C@@H](O)[C@@H](CO)O[C@H]1C(=O)N(Cc1sccc1Cl)[C@H]1CCCC[C@@H]1O [Example 35, (2R,3R,4S,5R,6R)-N-((3-chlorothiophen-2-yl)methyl)-5-hydroxy-N-((1S,2S)-2-hydroxycyclohexyl)-6-(hydroxymethyl)-3-methoxy-4-(4-(3,4,5-trifluorophenyl)-1H-1,2,3-triazol-1-yl)tetrahydro-2H-pyran-2-carboxamide] | 210 nM | 1630 nM
CO[C@@H]1[C@@H](n2cc(-c3cc(F)c(F)c(F)c3)nn2)[C@@H](O)[C@@H](CO)O[C@H]1C(=O)N(Cc1scnc1C)[C@H]1CCCC[C@@H]1O [Example 36, (2R,3R,4S,5R,6R)-5-hydroxy-N-((1S,2S)-2-hydroxycyclohexyl)-6-(hydroxymethyl)-3-methoxy-N-((4-methylthiazol-5-yl)methyl)-4-(4-(3,4,5-trifluorophenyl)-1H-1,2,3-triazol-1-yl)tetrahydro-2H-pyran-2-carboxamide] | 231 nM | 1030 nM
